From patent US20240182453A1, “NOVEL SUBSTITUTED PYRAZINE-CARBOXAMIDE DERIVATIVES” (Boehringer Ingelheim International GmbH, priority 2022, published 2024)
pIC50: −log10 of the molar value.

The compounds below were run against human metabotropic Glutamate 4 receptor (mGluR4) (Homo sapiens (Human), UniProt Q14833) (assay: Assay A: in vitro testing of mGluR4 potency (glutamate-induced cAMP lowering, HTRF cAMP)). Settings: HEK293 cells overexpressing human mGluR4; 10 uM L-glutamic acid, 1 uM forskolin; compounds of the present invention.
human metabotropic Glutamate 4 receptor (mGluR4), sequence (Q14833 33-912): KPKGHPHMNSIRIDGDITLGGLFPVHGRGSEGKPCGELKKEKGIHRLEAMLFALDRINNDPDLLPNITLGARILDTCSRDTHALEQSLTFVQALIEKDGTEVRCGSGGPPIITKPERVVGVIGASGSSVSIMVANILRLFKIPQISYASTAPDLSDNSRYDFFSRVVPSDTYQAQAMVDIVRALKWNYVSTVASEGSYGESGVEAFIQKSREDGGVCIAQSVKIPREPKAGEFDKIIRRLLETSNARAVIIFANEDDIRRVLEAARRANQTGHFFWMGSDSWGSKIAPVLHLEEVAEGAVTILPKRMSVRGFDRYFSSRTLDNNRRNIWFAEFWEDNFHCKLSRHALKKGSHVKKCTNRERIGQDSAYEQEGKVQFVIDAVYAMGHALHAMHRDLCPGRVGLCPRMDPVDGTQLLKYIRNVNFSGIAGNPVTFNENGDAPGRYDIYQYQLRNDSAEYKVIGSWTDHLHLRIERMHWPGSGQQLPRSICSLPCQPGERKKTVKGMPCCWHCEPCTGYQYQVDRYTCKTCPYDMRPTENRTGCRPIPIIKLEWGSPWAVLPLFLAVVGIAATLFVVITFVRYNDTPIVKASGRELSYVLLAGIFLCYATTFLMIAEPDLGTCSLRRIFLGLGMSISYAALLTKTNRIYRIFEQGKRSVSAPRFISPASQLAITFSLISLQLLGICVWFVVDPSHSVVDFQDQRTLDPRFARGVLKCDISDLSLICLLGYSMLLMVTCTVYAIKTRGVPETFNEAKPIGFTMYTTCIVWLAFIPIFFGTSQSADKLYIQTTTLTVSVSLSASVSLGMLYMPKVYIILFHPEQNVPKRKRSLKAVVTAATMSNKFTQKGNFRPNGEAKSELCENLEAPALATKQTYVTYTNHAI
Assay type: cell-based
Description: A. In Vitro Testing of mGluR4 Potency
The in vitro activity of the compounds according to the invention may be investigated as follows:
The HEK293 cell overexpressing the human metabotropic Glutamate 4 receptor are thawed at 37° C. and immediately diluted with cell culture medium. After centrifugation, the cell pellet is re-suspended in medium and then distributed from a stirred spinner flask into the wells of the assay plate. The plates are incubated for one hour at room temperature before they are incubated for 24 hours at 37° C./5% CO2. After washing the cells in the plate three times with 80 uL HBSS/HEPES buffer (10 uL buffer remained in the wells after washing), 5 uL per well of compounds diluted in HBSS/HEPES buffer containing 0.2% BSA (final concentration: 0.1%) and 1 mM IBMX (final concentration: 0.5 mM) are added to the wells of the assay plate. Thereafter 5 uL per well of L-Glutamic acid (final concentration: 10 uM), forskolin (final concentration: 1 uM) and 1 mM IBMX (final concentration: 0.5 mM) dissolved in HBSS/HEPES buffer containing 0.2% BSA (final concentration: 0.1%) are added to the assay plate (final DMSO concentration: 1%). Several wells of the assay plate are used either for the positive and the negative controls or for the cAMP standard curve. The assay plate is incubated for 30 minutes at room temperature. Then 5 ul per well of Anti-cAMP-Antibody-d2 solution and 5 ul per well of cAMP-Europium Cryptate dilution are added to all wells of the plate and the plate is incubated another 60 minutes light protected at room temperature. The emission at 615 nm and 665 nm (Excitation wavelength: 320 nm) are measured on the EnVision™ reader (Perkin Elmer). The ratio between the emission at 665 nm and 615 is calculated by the reader. The whole assay is performed in the dark or under green light.
The cAMP standard is prepared by diluting the cAMP stock solution with HBSS/Hepes buffer: 5 μl/well of the cAMP dilutions (in HBSS/Hepes buffer containing 1 mM IBMX and 0.2% BSA—final concentration: 0.5 mM IBMX and 0.1% BSA) are added to 10 ul/well HBSS/Hepes buffer plus 5 ul/well 4% DMSO in HBSS/Hepes containing 0.2% BSA (final DMSO concentration: 1%—like in the wells containing compounds) in the wells of the assay plate. The final cAMP concentrations in the assay plate are: 0, 0.17, 0.69, 2.78, 11.1, 44.5, 178, and 712 nM (two wells/cAMP concentration).
Each assay microtiter plate contained also wells with vehicle controls instead of compound as controls for L-Glutamic acid induced signal (negative control; 100% CTL; 10 uM L-Glutamic acid+1 uM forskolin+0.5 mM IBMX+1% DMSO) and wells with vehicle controls without L-Glutamic acid as controls for non-specific changes in signal (positive control; 0% CTL; 0 uM L-Glutamic acid+1 uM forskolin+0.5 mM IBMX+1% DMSO).
The analysis of the data is performed by the calculation the ratio between the emission at 665 nm and the emission at 615 nm (Em665/Em615 ratio). Thereafter the signals of the compounds are normalized using the positive and negative controls by the following formula:
PoC=100×((Signal Sample−Positive Control)/(Negative Control−Positive Control))

| SMILES | pIC50 |
| --- | --- |
| COCCCn1c([C@@H](NC(=O)c2cnc(C)cn2)[C@@H](C)OC)nc2cc(OC(F)(F)F)ccc21 [Example 130, N-[(1R,2R)-2-methoxy-1-[1-(3-methoxypropyl)-5-(trifluoromethoxy)-1H-1,3-benzodiazol-2-yl]propyl]-5-methylpyrazine-2-carboxamide] | 7.89 |
| Cc1cnc(C(=O)N[C@H](c2nc3cc(F)ccc3n2CC(F)F)C(C)C)cn1 [Example 37, N-[(1S)-1-[1-(2,2-difluoroethyl)-5-fluoro-1H-1,3-benzodiazol-2-yl]-2-methylpropyl]-5-methylpyrazine-2-carboxamide] | 8.05 |
| CCn1c(C(NC(=O)c2cnc(C)cn2)C2CCOC2)nc2ccc(Cl)cc21 (single isomer, unassigned) [Example 164, N-[(6-chloro-1-ethyl-1H-1,3-benzodiazol-2-yl)(oxolan-3-yl)methyl]-5-methylpyrazine-2-carboxamide] | 7.46 |
| COCCn1c([C@@H](NC(=O)c2cnc(C)cn2)C2CC2)nc2cc(Cl)c(F)cc21 [Example 21] | 8.52 |
| CCn1c(C(NC(=O)c2cnc(C)cn2)C2CCOC2)nc2ccc(C(F)(F)F)cc21 (single isomer, unassigned) [Example 148, N-{[1-ethyl-6-(trifluoromethyl)-1H-1,3-benzodiazol-2-yl](oxolan-3-yl)methyl}-5-methylpyrazine-2-carboxamide] | 7.85 |
| CO[C@H](C)[C@H](NC(=O)c1cnc(C)cn1)c1nc2cc(Cl)ccc2n1C [Example 29, N-[(1R,2R)-1-(5-chloro-1-methyl-1H-1,3-benzodiazol-2-yl)-2-methoxypropyl]-5-methylpyrazine-2-carboxamide] | 7.96 |
| O=C(N[C@@H](CC1CC1)c1nc2cc(Cl)ccc2n1CCOC(F)F)c1cnc(C(F)F)cn1 [Example 108, N-[(1S)-1-{5-chloro-1-[2-(difluoromethoxy)ethyl]-1H-1,3-benzodiazol-2-yl}-2-cyclopropylethyl]-5-(difluoromethyl)pyrazine-2-carboxamide] | 8.22 |
| CCn1c([C@@H](NC(=O)c2cnc(C)cn2)C2CC2)nc2cc(C(F)(F)F)ccc21 [Example 36, N-[(S)-cyclopropyl[1-ethyl-5-(trifluoromethyl)-1H-1,3-benzodiazol-2-yl]methyl]-5-methylpyrazine-2-carboxamide] | 8.52 |
| CO[C@H](C)[C@H](NC(=O)c1cnc(C)cn1)c1nc2cc(Br)c(F)cc2n1C [Example 26, N-[(1R,2R)-1-(5-bromo-6-fluoro-1-methyl-1H-1,3-benzodiazol-2-yl)-2-methoxypropyl]-5-methylpyrazine-2-carboxamide] | 8.15 |
| COCCn1c([C@@H](NC(=O)c2cnc(C)cn2)[C@@H](C)OC(F)F)nc2cc(OC(F)F)ccc21 [Example 79, N-[(1R,2R)-2-(difluoromethoxy)-1-[5-(difluoromethoxy)-1-(2-methoxyethyl)-1H-1,3-benzodiazol-2-yl]propyl]-5-methylpyrazine-2-carboxamide] | 7.72 |
| COCCn1c([C@@H](NC(=O)c2cnc(C(F)F)cn2)C2CC2)nc2cc(Cl)ccc21 [Example 11, N-[(S)-[5-chloro-1-(2-methoxyethyl)-1H-1,3-benzodiazol-2-yl](cyclopropyl)methyl]-5-(difluoromethyl)pyrazine-2-carboxamide] | 8.52 |
| Cc1cnc(C(=O)N[C@H](c2nc3ccc(C(F)(F)F)cc3n2CC(F)F)[C@@H]2CCOC2)cn1 [Example 145, N-[(S)-[1-(2,2-difluoroethyl)-6-(trifluoromethyl)-1H-1,3-benzodiazol-2-yl][(3S)-oxolan-3-yl]methyl]-5-methylpyrazine-2-carboxamide] | 7.39 |
| CCn1c([C@@H](NC(=O)c2cnc(C)cn2)[C@H]2CCOC2)nc2cc(F)ccc21 [Example 144, N-[(S)-(1-ethyl-5-fluoro-1H-1,3-benzodiazol-2-yl)[(3R)-oxolan-3-yl]methyl]-5-methylpyrazine-2-carboxamide] | 7.39 |
| CCn1c([C@@H](NC(=O)c2cnc(C)cn2)[C@]2(O)CCCOC2)nc2ccc(F)cc21 [Example 153, N-[(R)-(1-ethyl-6-fluoro-1H-1,3-benzodiazol-2-yl)[(3R)-3-hydroxyoxan-3-yl]methyl]-5-methylpyrazine-2-carboxamide] | 7.52 |
| Cc1cnc(C(=O)N[C@H](c2nc3ccc(Cl)cc3n2CC(F)F)C2CC2)cn1 [Example 157, N-[(S)-[6-chloro-1-(2,2-difluoroethyl)-1H-1,3-benzodiazol-2-yl](cyclopropyl)methyl]-5-methylpyrazine-2-carboxamid] | 8.22 |
| Cc1cnc(C(=O)N[C@H](c2nc3cc(C(F)(F)F)ccc3n2C)[C@@H](C)OC(F)F)cn1 [Example 61, N-[(1R,2R)-2-(difluoromethoxy)-1-[1-methyl-5-(trifluoromethyl)-1H-1,3-benzodiazol-2-yl]propyl]-5-methylpyrazine-2-carboxamide] | 8.10 |
| COCCn1c([C@@H](NC(=O)c2cnc(C(F)F)cn2)[C@H]2CCCO2)nc2cc(OC(F)(F)F)ccc21 [Example 53, 5-(difluoromethyl)-N-[(R)-[1-(2-methoxyethyl)-5-(trifluoromethoxy)-1H-1,3-benzodiazol-2-yl][(2R)-oxolaN-2-yl]methyl]pyrazine-2-carboxamide] | 8.22 |
| CCc1c(Br)ccc2c1nc([C@@H](NC(=O)c1cnc(C)cn1)C(C)(C)O)n2C [Example 109, N-[(1R)-1-(5-bromo-4-ethyl-1-methyl-1H-1,3-benzodiazol-2-yl)-2-hydroxy-2-methylpropyl]-5-methylpyrazine-2-carboxamide] | 8.22 |
| COCCn1c([C@@H](NC(=O)c2cnc(C)cn2)C(C)(C)O)nc2cc(C(F)(F)F)ccc21 [Example 126, N-[(1R)-2-hydroxy-1-[1-(2-methoxyethyl)-5-(trifluoromethyl)-1H-1,3-benzodiazol-2-yl]-2-methylpropyl]-5-methylpyrazine-2-carboxamide] | 7.85 |
| CCn1c(C(NC(=O)c2cnc(C)cn2)C2CCOC2)nc2cc(F)c(F)cc21 (single isomer, unassigned) [Example 160, N-[(1-ethyl-5,6-difluoro-1H-1,3-benzodiazol-2-yl)(oxolan-3-yl)methyl]-5-methylpyrazine-2-carboxamide] | 7.33 |
| Cc1cnc(C(=O)N[C@@H](CC2CC2)c2nc3cc(Cl)ccc3n2CCOC(F)F)cn1 [Example 125, N-[(1S)-1-{5-chloro-1-[2-(difluoromethoxy)ethyl]-1H-1,3-benzodiazol-2-yl}-2-cyclopropylethyl]-5-methylpyrazine-2-carboxamide] | 8.15 |
| COCCn1c([C@@H](NC(=O)c2cnc(C)cn2)C2CC2)nc2cc(F)ccc21 [Example 6, N-[(S)-cyclopropyl[5-fluoro-1-(2-methoxyethyl)-1H-1,3-benzodiazol-2-yl]methyl]-5-methylpyrazine-2-carboxamide] | 8.15 |
| COCCn1c(C(NC(=O)c2cnc(C)cn2)C2CCOC2)nc2cc(OC(F)(F)F)ccc21 (single isomer, unassigned) [Example 62-2, N-{[1-(2-methoxyethyl)-5-(trifluoromethoxy)-1H-1,3-benzodiazol-2-yl](oxolan-3-yl)methyl}-5-methylpyrazine-2-carboxamide] | 7.55 |
| Cc1cnc(C(=O)N[C@H](c2nc3cc(F)ccc3n2C(C)C)C2CC2)cn1 [Example 7, N-[(S)-cyclopropyl[5-fluoro-1-(propan-2-yl)-1H-1,3-benzodiazol-2-yl]methyl]-5-methylpyrazine-2-carboxamide] | 8.40 |
